Test results reported in PubChem BioAssay AID2305 (GlaxoSmithKline (GSK), 2010).
Several values for one entry are separate records, joined by “and”; a condition that tells them apart may be missing. Equal values may be shown once.

The molecules below were run on P. falciparum 3D7 growth, pLDH absorbance (assay: P. falciparum 3D7 growth inhibition, dose response, strain 3D7 (AID 2305)).
Molecule Cc1cc(-c2ccc(CNCc3ccsc3)cc2)ccc1S(=O)(=O)NCCN1CCCC1 has an IC50 of 720 nM.
Molecule Cc1cccc2[nH]c(-c3ccc(-c4cccc(NC(=O)Nc5ccccc5)c4)cc3)nc12 has an IC50 of 720 nM.
In the case of CC(C)C(=O)NC(c1ccc(N(C)C)cc1)c1cc(Cl)c2cccnc2c1O (configuration not stated), the IC50 is reported as 860 nM.
For COc1ccc(NC(=O)c2ccc(NC(=O)c3ccc(Cl)cc3)cc2)cc1N1CCN(C)CC1, the IC50 was 850 nM.
Molecule Cc1cccc2[nH]c(-c3cccc(-c4cccc(NC(=O)CCc5cnc[nH]5)c4)c3)nc12 has an IC50 of 550 nM.
With COc1ccccc1CNc1ccnc(NCCc2cccc(C(F)(F)F)c2)n1 the IC50 was 930 nM.
CC(=O)c1ccc2cc(C(=O)NC3CCC(CCN4CCc5ccc(-c6noc(C)n6)cc5CC4)CC3)[nH]c2c1 (configuration not stated) gave an IC50 of 950 nM.
CCCNCc1ccc(-c2ccc(CN(CCOC)C(=O)CCC(=O)c3ccc(OC)c(F)c3)cc2)nc1 was tested, and the IC50 was 680 nM.
CC(=O)Nc1ccc(Cl)c(Cl)c1 showed an IC50 of 40 nM.
Work on O=C(Nc1ccc(OC2CCN(Cc3ccc(F)cc3)C2)c(Cl)c1)c1ccco1 (configuration not stated) yielded an IC50 of 190 nM.
Oc1ccc(Nc2nc(NCC3CCCO3)c3ccccc3n2)cc1 (configuration not stated) showed an IC50 of 810 nM.
For NC(=O)c1ccc2[nH]cc(C3CCN(CC4CCC(NC(=O)/C=C/c5ccc(Cl)c(Cl)c5)CC4)CC3)c2c1 (configuration not stated), the IC50 was 870 nM and 760 nM.
COc1ccc2c(NN=Cc3cccc(F)c3)cc(C)nc2c1 showed an IC50 of 780 nM.
Work on O=C(Nc1ccc(Cn2ncc(N3CCCNCC3)c(Cl)c2=O)cc1)Nc1cccc(SC(F)(F)F)c1 yielded an IC50 of 680 nM.
COc1ccc(-c2nc(NCc3ccccc3)c3cc(OC)c(OC)cc3n2)cc1 gave an IC50 of 400 nM.
With COc1ccc2nccc(NN=Cc3ccc(F)cc3)c2c1 the IC50 was 720 nM.
Cc1cccn2c(=O)c3cc(C(=O)NCCc4ccccc4)c(=N)n(CCCOC(C)C)c3nc12 was tested, and the IC50 was 480 nM.
O=C(Nc1cccc(C(F)(F)F)c1)Nc1ccc(Cl)c(C(F)(F)F)c1 gave an IC50 of 890 nM.
CC(C)COc1ccc(Cl)cc1Cc1nc(-c2nc3ccc(CN4CCN(C)CC4)cc3[nH]2)co1 gave an IC50 of 910 nM.
In the case of CCc1c(CCNCCCCCCNC(C)Cc2ccc3c(c2CC)OCO3)ccc(OC)c1OC (configuration not stated), the IC50 is reported as 870 nM.
With COc1cc(Cc2cnc(N)nc2N)cc(OC(C)C)c1OC the IC50 was 1040 nM.
In the case of N#Cc1cccc(CN2CCCN(Cc3ccc(C(=O)Nc4ccc(Cl)cc4)cc3)CC2)c1, the IC50 is reported as 880 nM.
CC(C)N1CCN(C(CN2CCN(CCCOc3ccc4nonc4c3)CC2)c2ccc(F)cc2)CC1 (configuration not stated) showed an IC50 of 800 nM.
Cc1nc(-c2nc(NCc3ccccn3)ncc2-c2ccsc2)sc1C gave an IC50 of 560 nM.
Work on O=C(NCCN1CCCC1)c1cccc(Nc2nccc(Nc3ccc(Oc4ccccc4)cc3)n2)c1 yielded an IC50 of 650 nM.
In the case of Cc1nc(N/C=C/c2ccc(O)cc2)cc(N2CCCC2)n1, the IC50 is reported as 1070 nM.
CC(C)NCc1cccc(-c2ccc(NC(=O)c3ccc(F)cc3)cc2)c1 was tested, and the IC50 was 850 nM.
In the case of Cc1ccc(O)cc1Nc1ccnc2ccc(-c3csc(CNCCN4CCOCC4)n3)cc12, the IC50 is reported as 150 nM.
CCOC(=O)c1c(C)n(C2CCCCCC2)c2cc(Br)c(O)cc12 showed an IC50 of 1200 nM.
NS(=O)(=O)c1cccc(Nc2nccc(-c3c(-c4cccc(NC(=O)c5c(F)cccc5F)c4)nn4ccccc34)n2)c1 gave an IC50 of 70 nM.
With COc1ccc2nccc([C@@H](O)CN3CCC(NC(=O)c4ccc(Cl)c(Cl)c4)CC3)c2c1 the IC50 was 610 nM.
CC(C)CCN1CCC(Oc2ccc(NC(=O)c3ccc4ncccc4c3)cc2Cl)C1 (configuration not stated) showed an IC50 of 970 nM.
For Cc1[nH]c(C)c(-c2ccc(S(=O)(=O)c3ccc(Cl)cc3)cc2)c(=O)c1Cl, the IC50 was 140 nM.
COc1ccc2nc(C)cc(Nc3ccc(Oc4ccc(Br)c5ccccc45)c(Cl)c3)c2c1 gave an IC50 of 280 nM.
O=C(NCCN1CCCCC1)c1ccc(CNC(=O)c2ccc(O)c(-c3cccc(C(F)(F)F)c3)c2)cc1 showed an IC50 of 890 nM.
In the case of CCCOc1cccc(C(=O)N[C@@H](Cc2ccccc2)[C@H](O)CNCc2ccccc2OC)c1, the IC50 is reported as 880 nM.
Molecule CCCN1CCN(CC(O)CNC(=O)Nc2ccc(Cl)cc2)CC1 (configuration not stated) has an IC50 of 100 nM.
NC(N)=NC(=O)Nc1cc(Cl)c(Cl)c(C(F)(F)F)c1 was tested, and the IC50 was 610 nM.
With CN(C)CCNC(=O)c1csc(Nc2ccc(Cl)c(Cl)c2)n1 the IC50 was 220 nM.
In the case of COc1ccc(C(C(=O)NC2CCN(C[C@H](O)c3ccnc4ccc(OC)cc34)CC2)N2CCN(c3ccc(Cl)c(Cl)c3)CC2)cc1 (some centres not stated), the IC50 is reported as 200 nM.
COc1ccc(Nc2cc(C)c3cc(NC(=O)c4ccncc4)ccc3n2)cc1 gave an IC50 of 910 nM.
With COC1CCC(C(=O)Nc2ccc(-c3cccc(-c4nc5c(C)cccc5[nH]4)c3)cc2)CC1 (configuration not stated) the IC50 was 580 nM.
With CC(C)(C)c1cc(C(=O)N2CCN(c3cnccn3)CC2)n(Cc2ccccc2)n1 the IC50 was 1140 nM.
COc1cc2nc(NCc3ccc(S(N)(=O)=O)cc3)nc(Nc3ccc(Oc4ccccc4)cc3)c2cc1OC was tested, and the IC50 was 440 nM.
Molecule COc1cc2c(cc1OCCN1CCC(N)CC1)N(C(=O)/C=C/c1ccccc1Cl)CC2 has an IC50 of 1120 nM.
For COc1ccc2nccc([C@@H](O)CN3CCC(NCc4ccc5c(c4)OCCO5)CC3)c2c1, the IC50 was 290 nM.
COc1ccc(NC(=O)CCNc2cc(C)nc(NCCc3ccc(F)cc3)n2)cc1 gave an IC50 of 850 nM.
CN1CCN(c2ccc3nc(-c4ccc(Cc5cc(Cl)ccc5OCc5ccccc5)o4)[nH]c3c2)CC1 showed an IC50 of 810 nM.
Molecule CN1CCN(CC(=O)Nc2ccc(-c3cccc(-c4nc5ccc(C(F)(F)F)cc5[nH]4)c3)cc2)CC1 has an IC50 of 400 nM.
Work on O=C(NC1CCN(Cc2ccccc2)CC1)c1cc(C(=O)NC2CCN(Cc3ccccc3)CC2)cc(C(=O)NC2CCN(Cc3ccccc3)CC2)c1 yielded an IC50 of 1040 nM.
In the case of O=C(NC1CC1)c1ccc(Nc2nccc(-c3c(-c4cccc(NC(=O)c5c(F)cccc5F)c4)nn4ccccc34)n2)cc1, the IC50 is reported as 410 nM.
Work on COc1ccc(CN2C(=S)N(Cc3ccccc3)C(=O)C2CC(=O)Nc2ccccc2)cc1OC (configuration not stated) yielded an IC50 of 840 nM.
Molecule CCNC(C)(C)CN(Cc1ccc(-c2ccc(C(F)(F)F)cc2)cc1)C(=O)Cn1c(CCc2cccc(F)c2F)nc(=O)c2ccccc21 has an IC50 of 810 nM.
CC(C)CNCc1cccc(-c2cccc(CN(C(=O)c3cccs3)C3CCN(Cc4ccccc4)CC3)c2)c1 showed an IC50 of 900 nM.
Cc1ccc(-n2c(C)nc3c(Nc4ccc(-c5ccncc5)cc4)ncnc32)c(C)c1 was tested, and the IC50 was 100 nM.
For CC(C)CC(C)NC(=O)C1Cc2c([nH]c3ccc(F)cc23)C2(CCN(Cc3ccccc3)CC2)N1 (configuration not stated), the IC50 was 970 nM.
In the case of CCCCNCCOc1ccc(-c2nc(-c3ccccc3)c(-c3ccccc3)[nH]2)cc1, the IC50 is reported as 680 nM.
With Nc1c(C(=O)NCCCCN2CCN(c3nsc4ccccc34)CC2)sc2ccccc12 the IC50 was 1320 nM.
For CCCCCCCCCN(CCC)C(=O)[C@@H]1OC(C(=O)OC(c2ccccc2)c2ccccc2)=C[C@H](NC(=O)OC(C)(C)C)[C@H]1NC(C)=O, the IC50 was 640 nM.
Work on CCCc1ccc(C2CCN(CCCCNC(=O)c3ccc(NC(=O)c4ccc(Cl)cc4)cc3)CC2)cc1 yielded an IC50 of 630 nM.
CC(=O)Nc1ccc(CN2CCC(NC(=O)c3ccc(-c4ccc(N(C)C)cc4)s3)CC2)cc1 showed an IC50 of 870 nM.
Work on Cc1cc(NC(=O)c2ccc(-c3ccccc3)cc2)no1 yielded an IC50 of 1020 nM.
O=S(=O)(Nc1cccc(CCN2CCC(N3CCCCC3)CC2)c1)c1ccc2c(c1)OCCO2 was tested, and the IC50 was 1230 nM.
For CN(C)Cc1ccc(-c2cc3c(-c4ccc(CN(C)C)cc4)ccnc3[nH]2)cc1, the IC50 was 890 nM.
COc1cc(F)c2nccc([C@@H](O)CN3CCC(NCc4cc5c(cc4F)OCCO5)CC3)c2c1 gave an IC50 of 680 nM.
O=[N+]([O-])c1ccc(C=NNc2nc(Nc3ccccc3)nc(Nc3ccccc3)n2)o1 was tested, and the IC50 was 840 nM.
In the case of O=C(Nc1ccc(C(=O)N2CCN(CCN3CCN(c4cccc(C(F)(F)F)c4)CC3)CC2)cc1)c1ccc(OC(F)(F)F)cc1, the IC50 is reported as 690 nM.
Molecule CSc1nccc(-c2ccc3ccnc(N)c3c2)n1 has an IC50 of 920 nM.
For CN1CCC=C(C(=O)NCC(C)(C)c2nc(-c3ccc(Cl)c(O)c3)c(-c3ccncc3)[nH]2)C1, the IC50 was 1000 nM.
Work on COc1nc2c(CCN3CC[C@H](NCc4cc(C#N)c5c(c4)CCO5)[C@H](O)C3)ccnc2cc1F yielded an IC50 of 350 nM.
OCCNc1nc(Nc2ccc(Cl)cc2)nc2ccccc12 gave an IC50 of 710 nM.
COc1ccc(C(=O)Nc2ccc(Nc3nc(C)cc(N(C)C)n3)cc2)c(OC)c1 gave an IC50 of 870 nM.
For O=S(=O)(Nc1ccc(CCN2CCCCC2CCN2CCCC2)cc1)c1ccc(-c2ccccc2)cc1 (configuration not stated), the IC50 was 930 nM.
Work on COc1ccc2nccc([C@@H](O)CN3CCC(NCc4cc5c(Cl)cccc5[nH]4)CC3)c2c1 yielded an IC50 of 160 nM.
With CCOC(=O)c1[nH]c2cc(Cl)cc(Cl)c2c1/C=C/C(=O)Nc1ccc(-c2cnc(NC(C)=O)[nH]2)cc1 the IC50 was 1020 nM.
Molecule CC(C)c1ccc(NC(=O)c2ccc(C(=O)NCC3CCN(CC4CCCCC4)CC3)cc2)cc1 has an IC50 of 900 nM.
O=[N+]([O-])c1cccc(CNCC2CCN(Cc3ccc(-c4ccccc4)cc3)CC2)c1 was tested, and the IC50 was 250 nM.
In the case of COc1ccc(C2CCN(C#N)C2)cc1OC1CCCC1 (configuration not stated), the IC50 is reported as 230 nM.
CN(C)CCNC(=O)N1CCCN(c2ncnc3cc(-c4ccccc4)sc23)CC1 gave an IC50 of 790 nM.
Work on CCOC(=O)c1ccc(NC(=O)c2ccccc2C(=O)O)cc1 yielded an IC50 of 920 nM.
For O=C(N1CCN(c2cccc(C(F)(F)F)c2)CC1)C(Cl)(Cl)Cl, the IC50 was 890 nM.
In the case of O=C1Nc2cccc3c2C1(CCCCN1CCC(c2cc4ccncc4[nH]2)CC1)CCC3 (configuration not stated), the IC50 is reported as 790 nM and 910 nM.
COc1ccccc1-c1ccc(CNC(=O)C(CN2CCN(C)CC2)c2ccccc2)cc1 (configuration not stated) gave an IC50 of 1260 nM.
In the case of COc1cccc(Nc2nc(C)cc(NCc3ccc(-n4ccnc4)cc3)n2)c1, the IC50 is reported as 960 nM.
CCCC1CCNC(C(O)c2ccnc3ccc(OC)cc23)C1 (configuration not stated) gave an IC50 of 430 nM.
For CN1CCN(c2ccnc3ccc(NC(=O)Nc4cccc5c(-c6ccncc6)cccc45)cc23)CC1, the IC50 was 880 nM.
With COc1ccc(CCCN2C(=O)C(c3ccccc3)(c3ccccc3)N=C2N)cc1 the IC50 was 1050 nM.
CCNc1cc(C(=O)N[C@@H](Cc2ccccc2)[C@H](O)CNC(C)CCCC(C)C)cc(N2CCCS2(=O)=O)c1 (some centres not stated) gave an IC50 of 220 nM.
O=C(NCC1CC1)C1Cc2c([nH]c3ccc(Br)cc23)C2(CCN(CCc3ccccc3)CC2)N1 (configuration not stated) gave an IC50 of 910 nM.
For C=CCC(CC=C)N1C(=O)C(c2ccccc2)(c2ccccc2)N=C1N, the IC50 was 660 nM.
COC(=O)C(NC(=O)c1ccc(-c2ccc(-c3nc4ccccc4[nH]3)s2)cc1)c1ccc(O)cc1 (configuration not stated) gave an IC50 of 740 nM.
Work on O=C(Nc1ccc2nc3n(c(=O)c2c1)CCCCC3)C(=O)N1CCN(c2ccc(F)cc2)CC1 yielded an IC50 of 640 nM.
In the case of O=C(CCCCCNC(=O)c1ccc(O)c(-c2ccc(Cl)c(Cl)c2)c1)NCCc1ccc(Cl)c(Cl)c1, the IC50 is reported as 760 nM.
CCN(CC)CCCn1c(N)c(-c2nc3ccccc3[nH]2)c2nc(C#N)c(C#N)nc21 showed an IC50 of 270 nM.
For CC(C)(C)c1ccc(NC(=O)c2ccc(CN3CCCN(CC4CCCCC4)CC3)cc2)cc1, the IC50 was 540 nM.
With CC(C)CN1CCN(CCNc2c3ccccc3nc3ccccc23)CC1 the IC50 was 820 nM.
Molecule COc1ccc2ncc(F)c(CCN3CCC(NCc4cc(OC)c5c(c4)OCCO5)CC3)c2n1 has an IC50 of 570 nM.
